The values below are quoted from earlier work in article PMC12586182 (Frontiers in Oncology, 2025).

The series addresses T1, MEK1 (Homo sapiens, UniProt Q02750).
T1 construct: purchased Carna Biosciences, Inc. 07–41
Also on record: method as in Reiff et al. [15]. Particulars: 1 mmol/L ATP; ref Reiff et al. [15]; read-out: IC50 in an enzyme assay for MEK1; cited from earlier work.

T1 sequence (Q02750 whole entry): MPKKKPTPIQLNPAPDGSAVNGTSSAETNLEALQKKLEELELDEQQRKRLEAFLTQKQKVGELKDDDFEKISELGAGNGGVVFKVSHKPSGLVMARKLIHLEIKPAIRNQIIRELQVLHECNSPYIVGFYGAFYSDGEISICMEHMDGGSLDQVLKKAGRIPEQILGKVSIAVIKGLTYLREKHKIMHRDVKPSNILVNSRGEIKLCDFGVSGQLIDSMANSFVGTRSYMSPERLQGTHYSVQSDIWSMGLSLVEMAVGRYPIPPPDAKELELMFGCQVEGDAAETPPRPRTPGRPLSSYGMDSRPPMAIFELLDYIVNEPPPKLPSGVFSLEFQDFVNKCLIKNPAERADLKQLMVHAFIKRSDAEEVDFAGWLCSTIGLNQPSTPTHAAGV

As usually defined, the IC50 is the concentration needed to halve the response being measured. Consider `O=C(c1ccc(Oc2ccccc2)cc1Cl)c1c[nH]c2ncnc(N[C@@H]3CC[C@@H](CO)OC3)c12` [nemtabrutinib], for which the half-inhibitory concentration (IC50) was 599 nM.
